Data taken from patent publication US10597388B2, “Pyridazinone herbicides” (FMC CORPORATION, priority 2014, dated 2020).

Tests used:
Assay type in all cases: in vivo
[1] = tested on: field bindweed (Convolvulus arvensis); assay: Test E greenhouse herbicide test, pre- and postemergence
Summary of the method: (§1)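 Seeds were sown in silt loam and sprayed preemergence with compound in a non-phytotoxic solvent mix containing surfactant; for postemergence, plants at 2 to 18 cm (1- to 4-leaf stage) in peat-based potting medium were sprayed with the same formulation. After 14 to 21 d in a greenhouse, injury was rated visually against controls (0–100).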

[2] = tested on: pigweed, palmer (palmer pigweed, Amaranthus palmeri); assay: as above
Summary of the method: as §1

[3] = tested on: beggarticks (hairy beggarticks, Bidens pilosa); assay: as above
Summary of the method: as §1

[4] = tested on: nutsedge, yellow (yellow nutsedge, Cyperus esculentus); assay: as above; details: Preemergence
Summary of the method: as §1

[5] = tested on: johnsongrass (Sorghum halepense); assay: as above; details: Preemergence
Summary of the method: as §1

[6] = tested on: dayflower (Virginia (VA) dayflower, Commelina virginica); assay: as above
Summary of the method: as §1

[7] = tested on: waterhemp (common waterhemp, Amaranthus rudis); assay: as above
Summary of the method: as §1

soybean (Glycine max) = assay: as above
Summary of the method: as §1

[8] = tested on: momingglory (Ipomoea coccinea); assay: as above; details: Preemergence
Summary of the method: as §1

[9] = tested on: ragweed (common ragweed, Ambrosia elatior); assay: as above
Summary of the method: as §1

[10] = tested on: waterhemp_RES2 (ALS & HPPD resistant common waterhemp, Amaranthus rudis); assay: Test E greenhouse herbicide test, postemergence
Summary of the method: (§2)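 Postemergence spray of formulated test chemicals onto resistant waterhemp at 1- to 4-leaf stage (2–18 cm tall), grown in peat/vermiculite potting medium. Kept in greenhouse 14 to 21 d, then visually rated against untreated controls on a 0–100 scale (0 no effect, 100 complete control).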

[11] = tested on: waterhemp_RES1 (ALS & Triazine resistant common waterhemp, Amaranthus rudis); assay: Test E greenhouse herbicide test, postemergence
Summary of the method: as §2

[12] = 62 g ai/ha, Postemergence, scale 0 to 100 (0 no effect, 100 complete control)
[13] = 62 g ai/ha, Preemergence, scale 0 to 100 (0 no effect, 100 complete control)
[14] = 125 g ai/ha, Postemergence, scale 0 to 100 (0 no effect, 100 complete control)
[15] = 125 g ai/ha, Preemergence, scale 0 to 100 (0 no effect, 100 complete control)
[16] = 250 g ai/ha, Postemergence, scale 0 to 100 (0 no effect, 100 complete control)
[17] = Postemergence, 31 g ai/ha, visual, scale 0 no effect to 100 complete control
[18] = Preemergence, 31 g ai/ha, scale 0 to 100, 0 no effect, 100 complete control
[19] = Preemergence, 250 g ai/ha, visual, scale 0 no effect to 100 complete control
[20] = 62 g ai/ha, scale 0 to 100 (0 no effect, 100 complete control)
[21] = 125 g ai/ha, scale 0 to 100 (0 no effect, 100 complete control)
[22] = 31 g ai/ha, scale 0 to 100, 0 no effect, 100 complete control
[23] = 250 g ai/ha, visual, scale 0 no effect to 100 complete control
[24] = 31 g ai/ha, visual, scale 0 no effect to 100 complete control
[25] = 250 g ai/ha, scale 0 to 100 (0 no effect, 100 complete control)

COC(=O)Oc1c(C)nn(C)c(=O)c1-c1c(C)sc2c(C)cc(C)cc12 [Compound 81]
Plant response rating, Field Bindweed [1, 12]: 65 | Plant response rating, Field Bindweed [1, 13]: 0 | Plant response rating, Field Bindweed [1, 14]: 75 | Plant response rating, Field Bindweed [1, 15]: 75 | Plant response rating, Field Bindweed [1, 16]: 85 | Plant response rating, Field Bindweed [1, 17]: 60 | Plant response rating, Field Bindweed [1, 18]: 0 | Plant response rating, Field Bindweed [1, 19]: 100 | Plant response rating, Pigweed, Palmer [2, 12]: 20 | Plant response rating, Pigweed, Palmer [2, 13]: 75 | Plant response rating, Pigweed, Palmer [2, 15]: 75 | Plant response rating, Pigweed, Palmer [2, 16]: 50 | Plant response rating, Pigweed, Palmer [2, 17]: 30 | Plant response rating, Pigweed, Palmer [2, 18]: 35 | Plant response rating, Pigweed, Palmer [2, 19]: 100 | Plant response rating, Beggarticks [3, 12]: 100 | Plant response rating, Beggarticks [3, 13]: 100 | Plant response rating, Beggarticks [3, 14]: 100 | Plant response rating, Beggarticks [3, 15]: 100 | Plant response rating, Beggarticks [3, 16]: 100 | Plant response rating, Beggarticks [3, 17]: 90 | Plant response rating, Beggarticks [3, 18]: 80 | Plant response rating, Beggarticks [3, 19]: 100 | Plant response rating, Nutsedge, Yellow [4, 20]: 30 | Plant response rating, Nutsedge, Yellow [4, 21]: 80 | Plant response rating, Nutsedge, Yellow [4, 22]: 35 | Plant response rating, Nutsedge, Yellow [4, 23]: 90 | Plant response rating, Johnsongrass [5, 20]: 90 | Plant response rating, Johnsongrass [5, 21]: 65 | Plant response rating, Johnsongrass [5, 22]: 70 | Plant response rating, Johnsongrass [5, 23]: 100 | Plant response rating, Dayflower, VA [6, 12]: 70 | Plant response rating, Dayflower, VA [6, 13]: 15 | Plant response rating, Dayflower, VA [6, 14]: 80 | Plant response rating, Dayflower, VA [6, 15]: 35 | Plant response rating, Dayflower, VA [6, 16]: 80 | Plant response rating, Dayflower, VA [6, 17]: 60 | Plant response rating, Dayflower, VA [6, 18]: 10 | Plant response rating, Dayflower, VA [6, 19]: 65 | Plant response rating, Waterhemp [7, 13]: 90 | Plant response rating, Waterhemp [7, 14]: 60 | Plant response rating, Waterhemp [7, 15]: 90 | Plant response rating, Waterhemp [7, 16]: 75 | Plant response rating, Waterhemp [7, 17]: 50 | Plant response rating, Waterhemp [7, 18]: 60 | Plant response rating, Waterhemp [7, 19]: 90 | Plant response rating, Soybean (soybean (Glycine max); [13]): 0 | Plant response rating, Soybean (soybean (Glycine max); [14]): 0 | Plant response rating, Soybean (soybean (Glycine max); [15]): 0 | Plant response rating, Soybean (soybean (Glycine max); [16]): 10 | Plant response rating, Soybean (soybean (Glycine max); [17]): 0 | Plant response rating, Soybean (soybean (Glycine max); [18]): 0 | Plant response rating, Soybean (soybean (Glycine max); [19]): 0 | Plant response rating, Morningglory [8, 20]: 85 | Plant response rating, Morningglory [8, 21]: 100 | Plant response rating, Morningglory [8, 22]: 60 | Plant response rating, Morningglory [8, 23]: 100 | Plant response rating, Ragweed [9, 12]: 60 | Plant response rating, Ragweed [9, 13]: 100 | Plant response rating, Ragweed [9, 14]: 85 | Plant response rating, Ragweed [9, 15]: 100 | Plant response rating, Ragweed [9, 16]: 80 | Plant response rating, Ragweed [9, 17]: 60 | Plant response rating, Ragweed [9, 18]: 90 | Plant response rating, Ragweed [9, 19]: 100 | Plant response rating, Waterhemp_RES2 [10, 24]: 10 | Plant response rating, Waterhemp_RES2 [10, 21]: 50 | Plant response rating, Waterhemp_RES2 [10, 25]: 50 | Plant response rating, Waterhemp_RES1 [11, 24]: 50 | Plant response rating, Waterhemp_RES1 [11, 21]: 60 | Plant response rating, Waterhemp_RES1 [11, 25]: 65
